Our source for the Ki and IC50 values is ChEMBL document CHEMBL4007464, “Lead Development of Thiazolylsulfonamides with Carbonic Anhydrase Inhibitory Action” (J Med Chem, 2017).

One experiment addresses Carbonic anhydrase 9 (Homo sapiens, UniProt Q16790). Put plainly: Inhibition of recombinant human Carbonic anhydrase 9 assessed as reduction in CO2 hydration preincubated for 15 mins prior to testing measured for 10 to 100 secs by stopped-flow assay.
The next experiment has as its target Carbonic anhydrase 2 (Homo sapiens, UniProt P00918). Put plainly: Inhibition of recombinant human Carbonic anhydrase 2 assessed as reduction in CO2 hydration preincubated for 15 mins prior to testing measured for 10 to 100 secs by stopped-flow assay.
Experiment [1] deals with Carbonic anhydrase 5B, mitochondrial (Homo sapiens, UniProt Q9Y2D0). Put plainly: Inhibition of recombinant human Carbonic anhydrase 5B assessed as reduction in CO2 hydration preincubated for 15 mins prior to testing measured for 10 to 100 secs by stopped-flow assay.
Sequence of Carbonic anhydrase 5B, mitochondrial (Q9Y2D0 whole entry): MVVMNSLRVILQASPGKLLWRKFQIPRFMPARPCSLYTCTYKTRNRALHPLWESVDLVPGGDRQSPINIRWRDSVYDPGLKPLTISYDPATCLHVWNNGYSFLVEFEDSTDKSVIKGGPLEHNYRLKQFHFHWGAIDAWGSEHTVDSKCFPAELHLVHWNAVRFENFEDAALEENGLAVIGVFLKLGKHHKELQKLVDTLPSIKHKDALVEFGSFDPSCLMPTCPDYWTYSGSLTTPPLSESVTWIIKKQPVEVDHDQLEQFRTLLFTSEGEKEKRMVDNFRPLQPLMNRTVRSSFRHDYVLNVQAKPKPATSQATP
Another experiment concerns the target Carbonic anhydrase 1 (Homo sapiens, UniProt P00915). Put plainly: Inhibition of recombinant human Carbonic anhydrase 1 assessed as reduction in CO2 hydration preincubated for 15 mins prior to testing measured for 10 to 100 secs by stopped-flow assay.
In experiment [2] the target is Carbonic anhydrase 5A, mitochondrial (Homo sapiens, UniProt P35218). In words: Inhibition of recombinant human Carbonic anhydrase 5A assessed as reduction in CO2 hydration preincubated for 15 mins prior to testing measured for 10 to 100 secs by stopped-flow assay.
Sequence of Carbonic anhydrase 5A, mitochondrial (P35218 whole entry): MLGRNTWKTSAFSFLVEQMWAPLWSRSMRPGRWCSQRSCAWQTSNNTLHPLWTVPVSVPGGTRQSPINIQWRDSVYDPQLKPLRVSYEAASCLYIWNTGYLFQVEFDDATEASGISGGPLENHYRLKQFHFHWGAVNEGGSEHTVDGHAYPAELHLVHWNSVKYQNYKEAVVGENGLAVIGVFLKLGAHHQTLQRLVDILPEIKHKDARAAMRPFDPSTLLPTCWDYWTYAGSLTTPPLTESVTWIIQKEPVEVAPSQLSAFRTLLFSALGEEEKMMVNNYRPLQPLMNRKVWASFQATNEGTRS
The next experiment has as its target Carbonic anhydrase 12 (Homo sapiens, UniProt O43570). Put plainly: Inhibition of recombinant human Carbonic anhydrase 12 assessed as reduction in CO2 hydration preincubated for 15 mins prior to testing measured for 10 to 100 secs by stopped-flow assay.
Experiment [3] can be described thus: Inhibition of carbonic anhydrase in rat whole blood assessed as reduction in CO2 hydration preincubated for 15 mins prior to testing measured for 10 to 100 secs by stopped-flow assay.
Experiment [4] is described as follows: Inhibition of carbonic anhydrase in human whole blood assessed as reduction in CO2 hydration preincubated for 15 mins prior to testing measured for 10 to 100 secs by stopped-flow assay.
Experiment [5] is described as follows: Inhibition of carbonic anhydrase in mouse whole blood assessed as reduction in CO2 hydration preincubated for 15 mins prior to testing measured for 10 to 100 secs by stopped-flow assay.

Sequence of Carbonic anhydrase 1 (P00915 whole entry): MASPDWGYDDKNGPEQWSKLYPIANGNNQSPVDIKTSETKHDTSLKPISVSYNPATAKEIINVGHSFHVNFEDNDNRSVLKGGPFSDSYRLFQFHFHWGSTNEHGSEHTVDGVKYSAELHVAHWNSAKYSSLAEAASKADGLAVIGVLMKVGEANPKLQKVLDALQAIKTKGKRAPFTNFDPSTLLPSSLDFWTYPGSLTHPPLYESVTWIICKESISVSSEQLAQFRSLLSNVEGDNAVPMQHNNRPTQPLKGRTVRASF
Sequence of Carbonic anhydrase 12 (O43570 whole entry): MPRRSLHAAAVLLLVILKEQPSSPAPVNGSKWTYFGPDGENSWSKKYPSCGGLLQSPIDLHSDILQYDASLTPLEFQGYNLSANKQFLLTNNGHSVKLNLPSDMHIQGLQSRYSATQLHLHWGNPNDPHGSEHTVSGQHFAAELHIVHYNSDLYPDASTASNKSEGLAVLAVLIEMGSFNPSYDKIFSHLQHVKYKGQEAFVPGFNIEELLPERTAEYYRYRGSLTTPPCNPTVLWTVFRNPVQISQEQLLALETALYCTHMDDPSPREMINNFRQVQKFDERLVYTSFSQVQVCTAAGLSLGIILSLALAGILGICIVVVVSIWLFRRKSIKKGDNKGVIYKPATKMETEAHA

One may read the Ki as a dissociation constant, usually derived from enzyme kinetics or from competition with a known ligand. As to `Cc1nc(N(C)C(=O)Cc2ccc(-c3cnccn3)cc2)sc1S(N)(=O)=O`, the Ki at Carbonic anhydrase 9 is 69.1 nM.

Turning to `Cc1nc(N(CCN(C)C)C(=O)Cc2ccc(-c3ccccc3)cc2)sc1S(N)(=O)=O`, the Ki on Carbonic anhydrase 9 was 22 nM.

For `Cc1nc(N(C)C(=O)Cc2ccc(-c3ccccc3)cc2)sc1S(=O)(=O)NCCO`, the inhibitory constant (Ki) at Carbonic anhydrase 9 was 44.5 nM.

`Cc1nc(N(C)C(=O)Cc2ccc(-c3cc(F)ccc3F)cc2)sc1S(N)(=O)=O`: the Ki at Carbonic anhydrase 9 turned out to be 51.4 nM.

On to `Cc1nc(N(C)C(=O)Cc2ccc(-c3ccccc3F)cc2)sc1S(N)(=O)=O`, for which, at Carbonic anhydrase 9, the Ki is 10.1 nM.

For `CN(C(=O)Cc1ccc(-c2ccccn2)cc1)c1nc(CO)c(S(N)(=O)=O)s1`, the Ki on Carbonic anhydrase 9 worked out at 42.9 nM.

With `CNS(=O)(=O)c1sc(N(C)C(=O)Cc2ccc(-c3ccccc3)cc2)nc1C`, the Ki on Carbonic anhydrase 9 was 40.8 nM.

Take `Cc1nc(N(C)C(=O)Cc2ccc(-c3ccccn3)cc2)sc1S(N)(=O)=O`: the Ki at Carbonic anhydrase 2 turned out to be 14 nM; in [1] it was 251 nM; on Carbonic anhydrase 1, 262 nM; at Carbonic anhydrase 9 it was 464 nM; in experiment [2], 816 nM; at Carbonic anhydrase 12, 61.3 nM.

On to `Cc1nc(N(C(=O)Cc2ccc(-c3ccccc3)cc2)C2CC2)sc1S(N)(=O)=O`, for which the Ki on Carbonic anhydrase 9 was determined as 1 nM.

As to `CNS(=O)(=O)c1sc(N(C)C(=O)Cc2ccc(-c3ccccn3)cc2)nc1C`, the Ki on Carbonic anhydrase 9 stood at 24.7 nM.

For `COc1c(F)cccc1-c1ccc(CC(=O)N(C)c2nc(C)c(S(N)(=O)=O)s2)cc1`, the Ki at Carbonic anhydrase 9 was 21.8 nM.

`Cc1nc(N(C)C(=O)Cc2ccc(-n3cccn3)cc2)sc1S(N)(=O)=O`: the Ki at Carbonic anhydrase 9 was determined as 35 nM.

Regarding `Cc1nc(N(C)C(=O)Cc2ccc(-c3ccccc3)cc2)sc1S(N)(=O)=O`, the Ki on Carbonic anhydrase 9 came to 0.9 nM.

For the compound `Cc1nc(N(C)C(=O)Cc2ccc(-c3cccc(F)c3)cc2)sc1S(N)(=O)=O`, the inhibition constant Ki on Carbonic anhydrase 9 was 0.9 nM.

As for `CNS(=O)(=O)c1sc(N(C)C(=O)Cc2ccc(-c3ccccc3F)cc2)nc1C`, the Ki at Carbonic anhydrase 9 worked out at 25.6 nM.

With `Cc1nc(N(C)C(=O)Cc2ccc(-c3cccc[n+]3C)cc2)sc1S(N)(=O)=O`, the Ki at Carbonic anhydrase 9 was 261 nM.

Take `CCc1nc(N(C)C(=O)Cc2ccc(-c3ccccn3)cc2)sc1S(N)(=O)=O`: the Ki at Carbonic anhydrase 9 turned out to be 28.1 nM.

Turning to `CNS(=O)(=O)c1sc(N(CCN(C)C)C(=O)Cc2ccc(-c3ccccc3)cc2)nc1C`, the Ki at Carbonic anhydrase 9 worked out at 14 nM.

Broadly, the IC50 is the midpoint of a concentration-inhibition curve. Turning to `Cc1nc(N(C)C(=O)Cc2ccc(-c3ccccn3)cc2)sc1S(N)(=O)=O` [PRITELIVIR], the IC50 in [3] stood at 115 nM; in experiment [4] it was 65.3 nM; in experiment [5] it was 134 nM. Further, the Ki on Carbonic anhydrase 2 stood at 12.8 nM; in [1] it was 389 nM; on Carbonic anhydrase 1, 323 nM; on Carbonic anhydrase 9, 81 nM; in [2], 474 nM; at Carbonic anhydrase 12, 77.2 nM.
